Tests used:
green foxtail [1] = test: Test C postemergence; assay type: in vivo, Setaria viridis; conditions: 10 days
Procedure, shortened: (§1)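 Soil-applied (pre) and foliar (post, 1–2 leaf, 2–10 cm) sprays; surfactant-containing non-phytotoxic solvent vehicle; loam/sand substrate. Readout: visual % control at 10 d, greenhouse, versus untreated.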

blackgrass [2] = test: Test C preemergence; assay type: in vivo, Alopecurus myosuroides; conditions: 0 to 100 scale (0 no effect, 100 complete control); for Plant response rating, Blackgrass: Preemergence, 500 g ai/ha, visual rating after 10 days; for Blackgrass plant response rating: Test C, preemergence, 125 g ai/ha
Procedure, shortened: as §1

green foxtail [3] = test: Test C preemergence; assay type: in vivo, Setaria viridis; conditions: 0 to 100 scale (0 no effect, 100 complete control); for Foxtail, Green plant response rating: preemergence
Procedure, shortened: as §1

ragweed [4] = test: Test C preemergence; assay type: in vivo, Ambrosia artemisiifolia; conditions: 0 to 100 scale (0 no effect, 100 complete control); for Ragweed plant response rating: preemergence
Procedure, shortened: as §1

soybean [5] = test: Test C postemergence; assay type: in vivo, Glycine max; conditions: 10 days
Procedure, shortened: as §1

barnyardgrass [6] = test: Test D flooded paddy test; assay type: in vivo, Echinochloa crus-galli; conditions: 250 g ai/ha, applied to paddy water, visual rating after 13 to 14 days, scale 0 to 100 (0 no effect, 100 complete control)
Procedure, shortened: (§2)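 Plants grown to the 2-leaf stage; pots flooded to 3 cm above soil at treatment and held at that depth throughout. Test compounds applied directly to the paddy water. After 13 to 14 days in a greenhouse, response was rated visually versus controls on a 0 (no effect) to 100 (complete control) scale.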

galium = test: Test C postemergence; assay type: in vivo, Galium aparine; conditions: 10 days
Procedure, shortened: as §1

wheat [7] = test: Test C postemergence; assay type: in vivo, Triticum aestivum; conditions: 10 days
Procedure, shortened: as §1

ryegrass, Italian [8] = test: Test C postemergence; assay type: in vivo, Lolium multiflorum; conditions: 10 days
Procedure, shortened: as §1

soybean [9] = test: Test C preemergence; assay type: in vivo, Glycine max; conditions: 0 to 100 scale (0 no effect, 100 complete control); for Soybean plant response rating: preemergence
Procedure, shortened: as §1

oat, wild [10] = test: Test C preemergence; assay type: in vivo, Avena fatua; conditions: 0 to 100 scale (0 no effect, 100 complete control); for Oat, Wild plant response rating: preemergence
Procedure, shortened: as §1

oat, wild [11] = test: Test C postemergence; assay type: in vivo, Avena fatua; conditions: 10 days
Procedure, shortened: as §1

kochia [12] = test: Test C preemergence; assay type: in vivo, Bassia scoparia; conditions: 0 to 100 scale (0 no effect, 100 complete control); for Kochia plant response rating: preemergence
Procedure, shortened: as §1

corn [13] = test: Test C preemergence; assay type: in vivo, Zea mays; conditions: 0 to 100 scale (0 no effect, 100 complete control); for Corn plant response rating: preemergence
Procedure, shortened: as §1

sedge, umbrella = test: Test D flooded paddy test; assay type: in vivo, Cyperus difformis; conditions: 250 g ai/ha, applied to paddy water, visual rating after 13 to 14 days, scale 0 to 100 (0 no effect, 100 complete control)
Procedure, shortened: as §2

blackgrass [14] = test: Test C postemergence; assay type: in vivo, Alopecurus myosuroides; conditions: 10 days
Procedure, shortened: as §1

ducksalad = test: Test D flooded paddy test; assay type: in vivo, Heteranthera limosa; conditions: 250 g ai/ha, applied to paddy water, visual rating after 13 to 14 days, scale 0 to 100 (0 no effect, 100 complete control)
Procedure, shortened: as §2

kochia [15] = test: Test C postemergence; assay type: in vivo, Bassia scoparia; conditions: 10 days
Procedure, shortened: as §1

pigweed, palmer [16] = test: Test C preemergence; assay type: in vivo, Amaranthus palmeri; conditions: 0 to 100 scale (0 no effect, 100 complete control); for Pigweed, Palmer plant response rating: preemergence
Procedure, shortened: as §1

barnyardgrass [17] = test: Test C preemergence; assay type: in vivo, Echinochloa crusgalli; conditions: 0 to 100 scale (0 no effect, 100 complete control); for Barnyardgrass plant response rating: 125 g ai/ha, preemergence; for Plant response rating, Barnyardgrass: Preemergence, 500 g ai/ha, visual rating after 10 days
Procedure, shortened: as §1

corn [18] = test: Test C postemergence; assay type: in vivo, Zea mays; conditions: 10 days
Procedure, shortened: as §1

rice = test: Test D flooded paddy test; assay type: in vivo, Oryza sativa; conditions: 250 g ai/ha, applied to paddy water, visual rating after 13 to 14 days, scale 0 to 100 (0 no effect, 100 complete control)
Procedure, shortened: as §2

barnyardgrass [19] = test: Test C postemergence; assay type: in vivo, Echinochloa crusgalli; conditions: 10 days
Procedure, shortened: as §1

horseweed = test: Test C postemergence; assay type: in vivo, Erigeron canadensis; conditions: 10 days
Procedure, shortened: as §1

wheat [20] = test: Test C preemergence; assay type: in vivo, Triticum aestivum; conditions: 0 to 100 scale (0 no effect, 100 complete control); for Wheat plant response rating: preemergence
Procedure, shortened: as §1

pigweed, palmer [21] = test: Test C postemergence; assay type: in vivo, Amaranthus palmeri; conditions: 10 days
Procedure, shortened: as §1

ryegrass, Italian [22] = test: Test C preemergence; assay type: in vivo, Lolium multiflorum; conditions: 0 to 100 scale (0 no effect, 100 complete control); for Ryegrass, Italian plant response rating: preemergence
Procedure, shortened: as §1

ragweed [23] = test: Test C postemergence; assay type: in vivo, Ambrosia artemisiifolia; conditions: 10 days
Procedure, shortened: as §1

[24] = 125 g ai/ha, postemergence, 0 to 100 scale, 0 no effect, 100 complete control
[25] = Postemergence, 500 g ai/ha, visual 0 to 100 scale (0 no effect, 100 complete control)
[26] = Preemergence, 500 g ai/ha, visual rating after 10 days

Structure (SMILES): CCc1ncn(-c2cc3c(c(C(=O)N4C[C@H](C)Oc5c(Cl)cccc54)c2)OCCO3)n1 [Compound 155]
- Plant response rating, Foxtail, Green (green foxtail [1]; [24]): 90
- Plant response rating, Foxtail, Green (green foxtail [1]; [25]): 90
- Plant response rating, Blackgrass (blackgrass [2]): 90
- Blackgrass plant response rating (blackgrass [2]): 50
- Plant response rating, Foxtail, Green (green foxtail [3]; [26]): 100
- Foxtail, Green plant response rating (green foxtail [3]; Test C, 125 g ai/ha): 100
- Plant response rating, Ragweed (ragweed [4]; [26]): 100
- Ragweed plant response rating (ragweed [4]; Test C, 125 g ai/ha): 60
- Plant response rating, Soybean (soybean [5]; [24]): 100
- Plant response rating, Soybean (soybean [5]; [25]): 100
- Plant response rating, Barnyardgrass (Flood) (barnyardgrass [6]): 20
- Plant response rating, Galium (galium; [24]): 100
- Plant response rating, Galium (galium; [25]): 100
- Plant response rating, Wheat (wheat [7]; [24]): 60
- Plant response rating, Wheat (wheat [7]; [25]): 80
- Plant response rating, Ryegrass, Italian (ryegrass, Italian [8]; [24]): 70
- Plant response rating, Ryegrass, Italian (ryegrass, Italian [8]; [25]): 100
- Plant response rating, Soybean (soybean [9]; [26]): 100
- Soybean plant response rating (soybean [9]; Test C, 125 g ai/ha): 70
- Plant response rating, Oat, Wild (oat, wild [10]; [26]): 50
- Oat, Wild plant response rating (oat, wild [10]; Test C, 125 g ai/ha): 30
- Plant response rating, Oat, Wild (oat, wild [11]; [24]): 20
- Plant response rating, Oat, Wild (oat, wild [11]; [25]): 50
- Plant response rating, Kochia (kochia [12]; [26]): 90
- Kochia plant response rating (kochia [12]; Test C, 125 g ai/ha): 80
- Plant response rating, Corn (corn [13]; [26]): 50
- Corn plant response rating (corn [13]; Test C, 125 g ai/ha): 10
- Plant response rating, Sedge, Umbrella (Flood) (sedge, umbrella): 98
- Plant response rating, Blackgrass (blackgrass [14]; [24]): 90
- Plant response rating, Blackgrass (blackgrass [14]; [25]): 100
- Plant response rating, Ducksalad (Flood) (ducksalad): 60
- Plant response rating, Kochia (kochia [15]; [24]): 80
- Plant response rating, Kochia (kochia [15]; [25]): 90
- Plant response rating, Pigweed, Palmer (pigweed, palmer [16]; [26]): 100
- Pigweed, Palmer plant response rating (pigweed, palmer [16]; Test C, 125 g ai/ha): 100
- Barnyardgrass plant response rating (barnyardgrass [17]): 90
- Plant response rating, Barnyardgrass (barnyardgrass [17]): 100
- Plant response rating, Corn (corn [18]; [24]): 40
- Plant response rating, Corn (corn [18]; [25]): 90
- Plant response rating, Rice (Flood) (rice): 15
- Plant response rating, Barnyardgrass (barnyardgrass [19]; [24]): 90
- Plant response rating, Barnyardgrass (barnyardgrass [19]; [25]): 90
- Plant response rating, Horseweed (horseweed; [24]): 70
- Plant response rating, Horseweed (horseweed; [25]): 70
- Plant response rating, Wheat (wheat [20]; [26]): 70
- Wheat plant response rating (wheat [20]; Test C, 125 g ai/ha): 20
- Plant response rating, Pigweed, Palmer (pigweed, palmer [21]; [24]): 90
- Plant response rating, Pigweed, Palmer (pigweed, palmer [21]; [25]): 100
- Plant response rating, Ryegrass, Italian (ryegrass, Italian [22]; [26]): 90
- Ryegrass, Italian plant response rating (ryegrass, Italian [22]; Test C, 125 g ai/ha): 70
- Plant response rating, Ragweed (ragweed [23]; [24]): 100
- Plant response rating, Ragweed (ragweed [23]; [25]): 100

Structure (SMILES): CCc1ncn(-c2ccc(OC)c(C(=S)N3C[C@H](C)Oc4c(C)cccc43)c2)n1 [Compound 271]
- Plant response rating, Foxtail, Green (green foxtail [1]; [24]): 90
- Plant response rating, Foxtail, Green (green foxtail [1]; [25]): 90
- Plant response rating, Blackgrass (blackgrass [2]): 60
- Blackgrass plant response rating (blackgrass [2]): 20
- Foxtail, Green plant response rating (green foxtail [3]; 500 g ai/ha): 100
- Foxtail, Green plant response rating (green foxtail [3]; Test C, 125 g ai/ha): 100
- Ragweed plant response rating (ragweed [4]; 500 g ai/ha): 100
- Ragweed plant response rating (ragweed [4]; Test C, 125 g ai/ha): 10
- Plant response rating, Soybean (soybean [5]; [24]): 100
- Plant response rating, Barnyardgrass (Flood) (barnyardgrass [6]): 0
- Plant response rating, Galium (galium; [24]): 90
- Plant response rating, Galium (galium; [25]): 100
- Plant response rating, Wheat (wheat [7]; [24]): 70
- Plant response rating, Ryegrass, Italian (ryegrass, Italian [8]; [24]): 60
- Soybean plant response rating (soybean [9]; 500 g ai/ha): 100
- Soybean plant response rating (soybean [9]; Test C, 125 g ai/ha): 70
- Oat, Wild plant response rating (oat, wild [10]; 500 g ai/ha): 80
- Oat, Wild plant response rating (oat, wild [10]; Test C, 125 g ai/ha): 30
- Plant response rating, Oat, Wild (oat, wild [11]; [24]): 80
- Kochia plant response rating (kochia [12]; 500 g ai/ha): 100
- Kochia plant response rating (kochia [12]; Test C, 125 g ai/ha): 30
- Corn plant response rating (corn [13]; 500 g ai/ha): 0
- Corn plant response rating (corn [13]; Test C, 125 g ai/ha): 0
- Plant response rating, Sedge, Umbrella (Flood) (sedge, umbrella): 100
- Plant response rating, Blackgrass (blackgrass [14]; [24]): 70
- Plant response rating, Blackgrass (blackgrass [14]; [25]): 90
- Plant response rating, Ducksalad (Flood) (ducksalad): 85
- Plant response rating, Kochia (kochia [15]; [24]): 60
- Pigweed, Palmer plant response rating (pigweed, palmer [16]; 500 g ai/ha): 100
- Pigweed, Palmer plant response rating (pigweed, palmer [16]; Test C, 125 g ai/ha): 100
- Plant response rating, Barnyardgrass (barnyardgrass [17]): 100
- Barnyardgrass plant response rating (barnyardgrass [17]; Test C): 100
- Plant response rating, Corn (corn [18]; [24]): 50
- Plant response rating, Corn (corn [18]; [25]): 90
- Plant response rating, Rice (Flood) (rice): 10
- Plant response rating, Barnyardgrass (barnyardgrass [19]; [24]): 70
- Plant response rating, Barnyardgrass (barnyardgrass [19]; [25]): 90
- Plant response rating, Horseweed (horseweed; [24]): 50
- Plant response rating, Horseweed (horseweed; [25]): 90
- Wheat plant response rating (wheat [20]; 500 g ai/ha): 80
- Wheat plant response rating (wheat [20]; Test C, 125 g ai/ha): 20
- Plant response rating, Pigweed, Palmer (pigweed, palmer [21]; [24]): 90
- Ryegrass, Italian plant response rating (ryegrass, Italian [22]; 500 g ai/ha): 90
- Ryegrass, Italian plant response rating (ryegrass, Italian [22]; Test C, 125 g ai/ha): 80
- Plant response rating, Ragweed (ragweed [23]; [24]): 50
